Laboratory results: ChEMBL document CHEMBL5620353, “Novel antifungal triazoles with alkynyl-methoxyl side chains: Design, synthesis, and biological activity evaluation” (Eur J Med Chem, 2023)
Values after ≈ are worked out from the molar mass of the structure shown. Active and inactive are the calls of the source. The rule behind the calls is not given here.

Tests used:
[1] = system: Saccharomyces cerevisiae; experiment: Antifungal activity against recombinant Saccharomyces cerevisiae Y2716 overexpressing CpErg11 Y132F CpCpr assessed as inhibition of fungal growth incubated for 48 hrs by microbroth dilution method; assay type: functional
[2] = system: Candida albicans; experiment: Antifungal activity against Candida albicans SC5314 assessed as inhibition of fungal growth at 0.0625 ug/ml measured after 12 hrs by optical density based method; assay type: functional
[3] = system: Saccharomyces cerevisiae; experiment: Antifungal activity against recombinant Saccharomyces cerevisiae Y570 overexpressing CaCdr1 assessed as inhibition of fungal growth incubated for 48 hrs by microbroth dilution method; assay type: functional
[4] = system: Saccharomyces cerevisiae; experiment: Antifungal activity against recombinant Saccharomyces cerevisiae Y2301 overexpressing ScErg11 Y140F assessed as inhibition of fungal growth incubated for 48 hrs by microbroth dilution method; assay type: functional
[5] = system: Cryptococcus neoformans; experiment: Antifungal activity against Cryptococcus neoformans 32,609 assessed as inhibition of fungal growth incubated for 72 hrs by microbroth dilution method; assay type: functional
[6] = Hemolytic activity in rabbit RBC at 64 ug/ml incubated for 1 hr by absorbance based analysis; assay type: toxicity, cell-based, Oryctolagus cuniculus, Erythrocyte; conditions: rabbit red blood cells, at 64 µg/mL, read-out: Activity
[7] = molecular target: T1, Cytochrome P450 1A2 (Homo sapiens, UniProt P05177); experiment: Inhibition of human CYP1A2 using phenacetin as substrate prewarmed for 10 mins followed by NADPH addition and measured after 10 mins by LC-MS/MS analysis; assay type: ADME
T1 sequence (P05177 whole entry): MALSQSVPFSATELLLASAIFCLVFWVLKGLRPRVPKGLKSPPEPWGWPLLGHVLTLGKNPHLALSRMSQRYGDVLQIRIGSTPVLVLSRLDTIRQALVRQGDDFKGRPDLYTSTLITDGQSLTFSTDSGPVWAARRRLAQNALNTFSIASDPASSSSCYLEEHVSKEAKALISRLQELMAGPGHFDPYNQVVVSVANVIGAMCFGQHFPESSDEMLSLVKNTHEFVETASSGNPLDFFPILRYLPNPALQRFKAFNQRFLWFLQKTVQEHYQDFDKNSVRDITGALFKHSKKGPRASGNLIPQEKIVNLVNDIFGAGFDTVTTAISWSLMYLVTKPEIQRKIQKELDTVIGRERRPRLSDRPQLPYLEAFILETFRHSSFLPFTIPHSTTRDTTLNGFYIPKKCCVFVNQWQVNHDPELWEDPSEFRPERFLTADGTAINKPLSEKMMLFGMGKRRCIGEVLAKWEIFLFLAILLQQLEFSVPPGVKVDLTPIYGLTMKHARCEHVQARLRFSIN

[8] = system: Saccharomyces cerevisiae; experiment: Antifungal activity against recombinant Saccharomyces cerevisiae Y2459 overexpressing CaErg11 CaCpr assessed as inhibition of fungal growth incubated for 48 hrs by microbroth dilution method; assay type: functional
[9] = system: Candida albicans; experiment: Antibiofilm activity against Candida albicans SC5314 preformed biofilms at 64 ug/ml incubated for 24 hrs by XTT reduction assay relative to control; assay type: functional; design: scale not given: the % may be the effect or the level left; conditions: dose 64 µg/ml
[10] = system: [Candida] auris; experiment: Antifungal activity against fluconazole-resistant Candida auris 891 assessed as inhibition of fungal growth incubated for 48 hrs by microbroth dilution method; assay type: functional; conditions: Candidozyma auris
[11] = Selectivity index, ratio of IC50 for HUVEC cells to MIC for Candida albicans SC5314; assay type: toxicity; conditions: human, HUVEC cells versus Candida albicans SC5314; read-out: Selectivity Index
[12] = system: Saccharomyces cerevisiae; experiment: Resistance index, ratio of MIC for recombinant Saccharomyces cerevisiae Y525 overexpressing CaMdr1 to MIC for recombinant Saccharomyces cerevisiae Y2411 overexpressing ScErg11; assay type: functional
[13] = system: Candida albicans; experiment: Antifungal activity against Candida albicans 904 assessed as inhibition of fungal growth incubated for 48 hrs by spot assay; assay type: functional, organism-based; conditions: dose 0.5-1 µg/ml
[14] = system: Candida albicans; experiment: Antifungal activity against Candida albicans SC5314 assessed as inhibition of fungal growth incubated for 48 hrs by spot assay; assay type: functional, organism-based; conditions: dose 0.5-1 µg/ml
[15] = system: Candida parapsilosis; experiment: Antifungal activity against Candida parapsilosis 22019 assessed as inhibition of fungal growth incubated for 48 hrs by spot assay; assay type: functional, organism-based; conditions: dose 0.5-1 µg/ml
[16] = system: [Candida] auris; experiment: Antifungal activity against Candida auris 891 assessed as reduction in fungal viability incubated for 48 hrs by spot assay; assay type: functional, organism-based; conditions: Candidozyma auris, dose 0.5-1 µg/ml
[17] = system: Candida parapsilosis; experiment: Antifungal activity against Candida parapsilosis 22019 assessed as reduction in fungal viability incubated for 48 hrs by spot assay; assay type: functional, organism-based; conditions: dose 0.5-1 µg/ml
[18] = molecular target: T2, Lanosterol 14-alpha demethylase (Candida albicans (strain SC5314 / ATCC MYA-2876) (Yeast), UniProt P10613); experiment: Inhibition of Lanosterol 14-alpha demethylase in Candida albicans SC5314 assessed as reduction in ergosterol level at 8 ug/ml incubated for 8 hrs by GC-MS analysis relative to control; conditions: at 8 µg/mL
T2 sequence (P10613 whole entry): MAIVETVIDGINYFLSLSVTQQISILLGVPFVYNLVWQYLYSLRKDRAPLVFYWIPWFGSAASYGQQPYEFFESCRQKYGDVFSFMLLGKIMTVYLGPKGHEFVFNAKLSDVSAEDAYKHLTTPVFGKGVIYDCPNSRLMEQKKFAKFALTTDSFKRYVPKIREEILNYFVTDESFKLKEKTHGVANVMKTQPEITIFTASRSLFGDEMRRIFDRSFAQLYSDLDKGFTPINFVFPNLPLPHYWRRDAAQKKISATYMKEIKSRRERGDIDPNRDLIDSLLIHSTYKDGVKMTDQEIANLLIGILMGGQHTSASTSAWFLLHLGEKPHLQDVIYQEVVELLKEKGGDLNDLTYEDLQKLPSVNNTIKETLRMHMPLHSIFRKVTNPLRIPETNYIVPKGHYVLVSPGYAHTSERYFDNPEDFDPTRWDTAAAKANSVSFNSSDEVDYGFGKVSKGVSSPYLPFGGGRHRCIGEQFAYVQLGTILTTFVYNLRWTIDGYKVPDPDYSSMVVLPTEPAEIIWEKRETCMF

[19] = system: Nakaseomyces glabratus; experiment: Antifungal activity against Candida glabrata 537 assessed as reduction in fungal viability incubated for 48 hrs by spot assay; assay type: functional, organism-based; conditions: dose 0.5-1 µg/ml
[20] = system: Candida albicans; experiment: Antifungal activity against Candida albicans 904 assessed as reduction in fungal viability incubated for 48 hrs by spot assay; assay type: functional, organism-based; conditions: dose 0.5-1 µg/ml
[21] = system: Nakaseomyces glabratus; experiment: Antifungal activity against Candida glabrata 537 assessed as inhibition of fungal growth incubated for 48 hrs by spot assay; assay type: functional, organism-based; conditions: dose 0.5-1 µg/ml
[22] = system: Candida albicans; experiment: Antifungal activity against Candida albicans SC5314 assessed as reduction in fungal viability incubated for 48 hrs by spot assay; assay type: functional, organism-based; conditions: dose 0.5-1 µg/ml
[23] = system: [Candida] auris; experiment: Antifungal activity against Candida auris 891 assessed as inhibition of fungal growth incubated for 48 hrs by spot assay; assay type: functional, organism-based; conditions: Candidozyma auris, dose 0.5-1 µg/ml
[24] = system: Candida albicans; experiment: Antifungal activity against Candida albicans SC5314 assessed as inhibition of fungal growth at 16 ug/ml measured after 24 hrs by optical density based method; assay type: functional
[25] = molecular target: T2, Lanosterol 14-alpha demethylase; experiment: Inhibition of Lanosterol 14-alpha demethylase in Candida albicans SC5314 assessed as increase in eburicol level at 8 ug/ml incubated for 8 hrs by GC-MS analysis relative to control; design: scale not given: the % may be the effect or the level left; conditions: at 8 µg/mL
[26] = system: Candida albicans; experiment: Antifungal activity against Candida albicans SC5314 infected in Galleria mellonella larvae assessed as prolongation of survival time at 2 mg/kg measured after 10 days post inoculation; assay type: functional, organism-based; conditions: time 10.0 day
[27] = molecular target: T2, Lanosterol 14-alpha demethylase; experiment: Inhibition of Lanosterol 14-alpha demethylase in Candida albicans SC5314 assessed as increase in lanosterol level at 8 ug/ml incubated for 8 hrs by GC-MS analysis (reference value: 2.79%); design: scale not given: the % may be the effect or the level left; conditions: at 8 µg/mL
[28] = system: Candida albicans; experiment: Antifungal activity against Candida albicans assessed as reduction in hyphal length at 16 ug/ml; assay type: functional, organism-based; conditions: dose 16.0 µg/ml
[29] = system: Candida albicans; experiment: Antifungal activity against Candida albicans SC5314 infected in Galleria mellonella larvae assessed as delay in time of larval death at 8 mg/kg measured after 10 days post inoculation; assay type: functional, organism-based; conditions: time 10.0 day
[30] = molecular target: T2, Lanosterol 14-alpha demethylase; experiment: Inhibition of Lanosterol 14-alpha demethylase in Candida albicans SC5314 assessed as increase in obtusifoliol level at 8 ug/ml incubated for 8 hrs by GC-MS analysis relative to control; design: scale not given: the % may be the effect or the level left; conditions: at 8 µg/mL
[31] = system: Candida albicans; experiment: Antifungal activity against Candida albicans assessed as increase in pseudohyphae at 16 ug/ml; assay type: functional, organism-based; conditions: dose 16.0 µg/ml
[32] = system: Candida albicans; experiment: Antifungal activity against Candida albicans SC5314 infected in Galleria mellonella larvae assessed as median survival time at 8 mg/kg measured after 10 days post inoculation; assay type: functional; conditions: time 10 day
[33] = system: Candida albicans; experiment: Antifungal activity against Candida albicans SC5314 infected in Galleria mellonella larvae assessed as larval survival rate at 8 mg/kg measured after 10 days post inoculation relative to control; assay type: functional; conditions: SC5314, 240 h, time 10 day

SMILES | MIC [1] [µg/mL] | inhibition at 0.0625 µg/mL [2] [%] | MIC [3] [µg/mL] | MIC [4] [µg/mL] | MIC [5] [µg/mL] | hemolysis at 1 h, 64 ug/ml [6] [%] | IC50 [7] [µM] | MIC [8] [µg/mL] | Activity [9] [%] | MIC [10] [µg/mL] | selectivity ratio [11] | Ratio [12] | Activity [13] | Activity [14] | Activity [15] | Activity [16] | Activity [17] | inhibition (INH) [18] | Activity [19] | Activity [20] | also measured
C[C@@H](OCC#Cc1ccncc1)[C@](O)(Cn1cncn1)c1ccc(F)cc1F | 0.063 | 100 | 4 | 0.063 | ≤ 0.125 | 1.36 | 31.1 | 0.016 | 50.31 | 32 (≈ 83.2 µM) | > 500 | >=16 |  |  |  |  |  |  |  |  | 
C[C@@H](OCC#Cc1ccc(F)cc1F)[C@](O)(Cn1cncn1)c1ccc(F)cc1F | 0.063 | 100 | 32 | 0.063 | 0.5 (≈ 1.19 µM) | 1.32 | 50.7 | 0.016 | 51.39 | 32 (≈ 76.3 µM) | > 500 | >=16 | Dose-Dependent Effect | Dose-Dependent Effect | Dose-Dependent Effect | Dose-Dependent Effect | Dose-Dependent Effect | ~ 100% | Dose-Dependent Effect | Dose-Dependent Effect | Activity [21]: Dose-Dependent Effect; Activity [22]: Dose-Dependent Effect; Activity [23]: Dose-Dependent Effect
C[C@@H](OCC#Cc1ccc(C#N)cc1)[C@](O)(Cn1cncn1)c1ccc(F)cc1F | 0.063 | 100 | 16 | 0.063 | 0.5 (≈ 1.22 µM) | 1.22 | 42.6 | 0.016 | 55.46 | 16 (≈ 39.2 µM) | > 500 | >=16 | Dose-Dependent Effect | Dose-Dependent Effect | Dose-Dependent Effect | Dose-Dependent Effect | Dose-Dependent Effect | ~ 100% | Dose-Dependent Effect | Dose-Dependent Effect | inhibition at 16 µg/mL [24]: 100%; Activity [25]: 13.13%; Activity [26]: Active; Activity [27]: 37.18%; Activity [28]: Active; Activity [29]: Active; Activity [30]: 12.82%; Activity [31]: Active; Activity [21]: Dose-Dependent Effect; MST [32]: 10 days; Activity [22]: Dose-Dependent Effect; survival at 8 mg/kg [33]: 40%; Activity [23]: Dose-Dependent Effect
